Laboratory results taken from patent publication US20250302990A1, “ENHANCING NON-VIRAL DNA DELIVERY AND EXPRESSION” (Spark Therapeutics, Inc., priority 2022, published 2025).

What was measured:
Wild type mice = experiment: Survival after hFIX DNA-LNP dosing, with or without oral JAK inhibitors (Example 3); format: in vivo, mouse; conditions: 30 minutes prior to and days 1, 2, 3 post 2.5 mpk hFIX DNA-LNP (bCKK-E12 LNP), followed out to 30 days, vs untreated
Method: FIG. 6 illustrates survival of WT mice dosed systemically with 2.5 mpk (50 μg) of human factor IX (hFIX) transgene-encoding plasmid DNA encapsulated in lipid nanoparticles; and either untreated or treated with ruxolitinib or baricitinib orally 30 minutes prior to, and on days 1, 2, and 3 post systemic dosing with hFIX transgene encoding plasmid DNA encapsulated in lipid nanoparticles.
Wild type mice were untreated, or treated (n=5 per group) with JAK inhibitors ruxolitinib or baricitinib orally 30 minutes prior to, and days 1, 2, and 3 post systemic dosing with 2.5 mpk (50 μg) of human factor IX (hFIX) transgene-encoding plasmid DNA encapsulated in lipid nanoparticles (DNA-LNP). The LNP used in the study was formulated with bCKK-E12. Survival of mice in each group was followed out to 30 days (FIG. 6).

Wild type C57BL/6 mice = experiment: Transgenic hFIX protein in blood plasma by ELISA one week post-DNA-LNP, anti-IFNAR and/or baricitinib (Example 4); format: in vivo, mouse; conditions: 2.5 mpk hFIX DNA-LNP (bCKK-E12) IV; anti-IFNAR 15 mpk IP 3 hours prior; baricitinib oral 90 minutes prior and daily days 1-6; one week post-dosing
Method: FIG. 7 illustrates FIX protein levels in blood plasma of mice not treated; or treated orally with baricitinib (“Bar”) 90 minutes prior to DNA-LNP dosing, and then daily on days 1-6 post-DNA-LNP dosing. Transgenic hFIX protein in blood plasma of surviving mice was measured by ELISA one-week post-DNA-LNP dosing.
Wild type C57BL/6 mice were untreated, or treated (n=5 per group) once IP with 15 mpk anti-mouse IFNAR blocking antibody (“anti-IFNAR”; clone MAR1-5A3, described in Dunn et al., Nat Immunol. 2005 July; 6(7):722-9) 3 hours prior to systemically (IV tail injections) dosing with 2.5 mpk (50 μg) of human factor IX (hFIX) transgene-encoding plasmid DNA encapsulated in lipid nanoparticles (DNA-LNP). The LNP used in the study was formulated with bCKK-E12. Mice were treated or not treated with the oral JAK inhibitor baricitinib (“Bar”) 90 minutes prior to DNA-LNP dosing, and then daily on days 1-6 post-DNA-LNP dosing. Transgenic hFIX protein in blood plasma of surviving mice was measured by ELISA one-week post-DNA-LNP dosing (FIG. 7).

## N#CC[C@H](C1CCCC1)n1cc(-c2[nH]cnc3nccc2-3)cn1 [Ruxolitinib]
Wild type mice
  survival of mice dosed with DNA-LNP: dramatically improved survival

## Baricitinib
Wild type C57BL/6 mice
  DNA-LNP transgene efficacy (hFIX protein in blood plasma, ELISA): did not boost transgene efficacy
Wild type mice
  survival of mice dosed with DNA-LNP: dramatically improved survival
